Measurements reported in patent publication US20050256178A1, “Novel nutraceutical compositions comprising boitin” (priority 2002, published 2005).

Experiments:
[1] = tested on: catalytic subunit of glucose-6-phosphatase; assay: Affymetrix GeneChip expression of glucose-6-phosphatase catalytic subunit in H-4-II-E rat liver cells; format: cell-based; conditions: H-4-II-E cells, 24 h; 50 μM EGCG, 1 μM biotin, 50 μM cysteamin; Affymetrix Id 1370725_a_at; triplicate
Procedure: The Affymetrix GeneChip® high-density oligonucleotide microarray approach was chosen to determine the global gene expression in H-4-II-E rat liver cells.
H-4-II-E rat liver cells were obtained from the American Type Culture Collection (ATCC) and cultured in Medium 199 (Invitrogen) Basel, Switzerland) supplemented with 10% fetal calf serum in a humidified 5% CO2 atmosphere at 37° C. Cells were regularly passaged at subconfluence and used at low passage numbers. For the final assays, cells were trypsinized, seeded at a density of 1×10^6 cells/well in 6-well cell culture plates and maintained in Medium 199 & 0.1% BSA (Invitrogen) for another 6 h before compounds were applied. EGCG was applied in DMSO; cysteamin was first solved in 1M HCl and then applied to the stimulation medium, biotin was directly dissolved into the medium. After 24 h treatment, total RNA was harvested.
A total number of 24 samples were prepared following the Affymetrix GeneChip® array protocol (Affymetrix, Santa Clara, Calif., USA). Briefly, total cellular RNA was extracted by using Qiagen RNeasy Mini Kit with an on-column RNase-free DNase I digest (Qiagen, Basel, Switzerland). A T7-(T)24 primer (5′-[sequence] [sequence]-(dT)24-3′) was annealed to 10 kg of total RNA and Superscript II reverse transcriptase (400 U) was utilized to synthesize first-strand cDNA in the presence of DTT, dNTPs and 1× reaction buffer. Second strand synthesis was performed by adding E. coli DNA polymerase I (40 U), E. coli ligase (10 U) and RNase H (2 U) in a final reaction containing 1× second strand buffer in the presence of dNTPs. Finally strands were blunted using T4 DNA polymerase (10 U) (Superscript™ Microarray Customized Kit, Invitrogen, Basel, CH). cDNA was purified by phenol/chloroform extraction and subsequently in vitro transcription was carried out for 3 h using T7 RNA polymerase (Megascript™ T7 Kit, Ambion, Tex., USA), incorporating bio-16-UTPs and bio-11-CTPs (Roche Molecular Biochemicals, Penzberg, Germany). […]

[2] = tested on: diabetic KK mice (NIDDM model); assay: Oral glucose tolerance in diabetic KK mice; format: in vivo; conditions: biotin orally (2-16 mg/day) or parentally (0.1 mg/day)
Text: (§1) Biotin: Biotin supplementation enhances hepatic glucose clearance which results in a decrease of circulating glucose concentration and induces decrease in the hepatic PEPCK activity. PEPCK is a rate-limiting cytosolic enzyme that catalyses the first committed step of hepatic gluconeogenesis. Decrease of hepatic PEPCK activity results in a decrease in liver glucose output.

[3] = tested on: C57BLKS/J db/db mice; assay: Glucose removal after oral glucose load (OGTT) in db/db mice, 5-week study; format: in vivo; conditions: for Glucose removal rate (% glucose decrease of control) 90 min / Glucose removal rate (% glucose decrease of control) 120 min / Glucose removal rate (% glucose decrease of control) 150 min / Glucose removal rate (% glucose decrease of control) 180 min: OGTT (1 g glucose/kg) in db/db mice after 4 weeks feed-ad-mix, biotin 8 mg/kg BW/day, phytanic acid 300 mg/kg BW/day; for Blood glucose levels during the glucose load compared to the control group: db/db mice, glucose load 1 g/kg, 90-180 min, biotin 8, phytanic acid 300 mg/kg BW/day
Procedure: The efficacy of the combination of biotin and phytanic acid as well as of both compounds alone on glucose removal was tested in a 5-week study in C57BLKS/J db/db mice (n=7−8/group). This model of late type 2 diabetes with severe hyperglycemia is widely used to determine the efficacy of anti-diabetic compounds.
Male db/db mice were obtained from Jackson Laboratory (Bar Harbor, Me., USA). Adult mice aged 8 weeks were used in the experiment. Mice were housed individually in plastic cages with bedding and allowed free access to standard rodent food and tap water. The animal rooms were controlled for temperature (24° C.), humidity (55%), and light (12-h light-dark cycle). The animals were randomized into four groups. Biotin and phytanic acid were administered as feed-ad-mix. Corn oil (1% of diet) served as a carrier substance for biotin and phytanic acid as well as a placebo when used alone. Group 1 received placebo, group 2 received biotin at a dose of 8 mg/kg body weight (BW)/day, group 3 received phytanic acid at a dose of 300 mg/kg BW/day, and group 4 received the combination of biotin and phytanic acid at a doses of 8 and 300 mg/kg BW/day, respectively. After 4 weeks of treatment glucose removal was assessed 90, 120, 150 and 180 minutes after an oral glucose load (1 g/kg body weight). Blood samples were obtained 90, 120, 150, 180 minutes from the tail vein for determination of blood glucose levels. Blood glucose was measured by a glucose analyzer (Glucotrend Premium, Roche Diagnostics, Rotkreuz, Switzerland). All data are expressed as means for animals in each diet group. Statistical significance of the mean differences between dietary groups was tested by one-way analysis of variance (ANOVA). If significant differences were found, the Dunnett's test for multiple comparison was used to compare each group to the control group. P values less than 0.05 were considered significant. All analyses were performed with Statistica (ver. 5.5A, StatSoft, Inc).
GRR is defined as the speed at which glucose is removed from blood and directed to the peripheral tissues. At 90, 120, 150 and 180 minutes after application of the glucose load blood glucose levels in animals treated with the combination of biotin and phytanic acid decreased to a greater extent than excepted by the decrease due to monotherapy with biotin or phytanic acid. […] To evaluate the GRR the glucose levels were expressed as the percent change of glucose levels for each group compared to the control group. The expected GRR is defined as the sum of the GRR exerted by biotin and by phytanic acid when used as a monotherapy.

[4] = tested on: pre-diabetic Otsuka Long-Evans Tokushima fatty (OLETF) rats (NIDDM); assay: Oral glucose tolerance in pre-diabetic OLETF rats; format: in vivo; conditions: biotin orally (2-16 mg/day) or parentally (0.1 mg/day)
Text: as §1

[5] = tested on: type 1 and type 2 diabetic patients; assay: Preliminary human studies, fasting blood glucose after biotin supplementation; format: in vivo
Text: as §1

[6] = tested on: streptozotocin-diabetic rats (IDDM); assay: Oral glucose tolerance in streptozotocin-diabetic rats; format: in vivo; conditions: biotin orally (2-16 mg/day) or parentally (0.1 mg/day)
Text: as §1

[7] = tested on: pre-adipocyte cells; assay: Differentiation of pre-adipocyte cells into mature adipocytes; format: cell-based; conditions: compared to the specific PPAR-γ agonist ciglitazone
Text: (§2) Therefore, intake of phytanic acid helps to improve insulin sensitivity and may act as a preventative measure against type 2 diabetes and Syndrome X through activation of PPARs and RXR.

[8] = tested on: rat primary hepatocytes; assay: Glucose uptake in rat primary hepatocytes; format: cell-based; conditions: about 10 to about 100 μM
Text: as §2

## O=C(O)CCCC[C@@H]1SC[C@@H]2NC(=O)N[C@@H]21 [Biotin]
[1]
  MeanAvgDiff (Mean Relative Expression) of glucose-6-phosphatase catalytic subunit: 516.66
[2]
  Oral glucose tolerance: improved oral glucose tolerance
[3]
  Glucose removal rate (% glucose decrease of control) 90 min: 11.6%
  Glucose removal rate (% glucose decrease of control) 120 min: 10.2%
  Glucose removal rate (% glucose decrease of control) 150 min: 15.3%
  Glucose removal rate (% glucose decrease of control) 180 min: 15.0%
  Blood glucose levels during the glucose load compared to the control group: Neither biotin nor phytanic acid caused a significant decrease
[4]
  Oral glucose tolerance: improved oral glucose tolerance
[5]
  Fasting blood glucose levels: decreased
[6]
  Oral glucose tolerance: improved oral glucose tolerance

## CC(C)CCCC(C)CCCC(C)CCCC(C)CC(=O)O (stereo not shown) [Phytanic acid, 3,7,11,15-tetramethylhexadecanoic acid]
[7]
  Effects on differentiation of pre-adipocyte cells into mature adipocytes: only minor effects
[3]
  Glucose removal rate (% glucose decrease of control) 90 min: 9.7%
  Glucose removal rate (% glucose decrease of control) 120 min: 12.5%
  Glucose removal rate (% glucose decrease of control) 150 min: 14.6%
  Glucose removal rate (% glucose decrease of control) 180 min: 15.2%
  Blood glucose levels during the glucose load compared to the control group: Neither biotin nor phytanic acid caused a significant decrease
[8]
  Uptake of glucose: enhances uptake of glucose

## O=C(O[C@@H]1Cc2c(O)cc(O)cc2O[C@@H]1c1cc(O)c(O)c(O)c1)c1cc(O)c(O)c(O)c1 [EGCG, Epigallocatechin gallate]
[1]
  MeanAvgDiff (Mean Relative Expression) of glucose-6-phosphatase catalytic subunit: 484.8

## NCCS [Cysteamin, cysteamine]
[1]
  MeanAvgDiff (Mean Relative Expression) of glucose-6-phosphatase catalytic subunit: 447.42
